Assay results reported in PubChem BioAssay AID180 (DTP/NCI, 2004).
“And” between values parts separate entries of the source, which are not always exact repeats. Identical values can stand only once.

System: BDF1 mice, Adenocarcinoma 755 s.c., tumor weight T/C
Assay: NCI In Vivo Anticancer Drug Screen. Data for tumor model Adenocarcinoma 755 (subcutaneous) in B6D2F1 (BDF1) mice
Details: endpoint: mean tumor weight, higher = larger tumour
Method: The antitumor activity of compounds was measured in mice bearing transplantable tumors. Survival or tumor size were measured and the results are expressed as the measurement made in the treated group (T) divided by the measurement made in the vehicle treated control group (C). The tumor model used in this assay is Adenocarcinoma 755 (subcutaneous) in B6D2F1 (BDF1) mice

[1] = dose: 2.0 mg/kg/injection, schedule: Q01DX011 (ip), vehicle: methylcellulose (MC)
[2] = dose: 80.0 mg/kg/injection, schedule: Q01DX011 (ip), vehicle: carboxymethylcellulose (CMC)

## CN(C)c1nc(N(C)C)nc(N(C)C)n1
dose: 4.75 mg/kg/injection, schedule: Q01DX011 (ip), vehicle: other
  T/C: 121 % of control
dose: 9.5 mg/kg/injection, schedule: Q01DX011 (ip), vehicle: other
  T/C: 67 % of control
dose: 10.88 mg/kg/injection, schedule: Q01DX011 (ip), vehicle: other
  T/C: 95 % of control
dose: 10.9 mg/kg/injection, schedule: Q01DX011 (ip), vehicle: other
  T/C: 95 % of control
dose: 11.25 mg/kg/injection, schedule: Q01DX011 (iv), vehicle: other
  T/C: 108 % of control
dose: 13.85 mg/kg/injection, schedule: Q01DX011 (ip), vehicle: carboxymethylcellulose (CMC)
  T/C: 87 % of control
dose: 13.85 mg/kg/injection, schedule: Q01DX011 (ip), vehicle: other
  T/C: 104 % of control
dose: 14.13 mg/kg/injection, schedule: Q01DX011 (ip), vehicle: other
  T/C: 117 % of control
dose: 15.6 mg/kg/injection, schedule: Q01DX011 (oral), vehicle: other
  T/C: 77 % of control
dose: 15.6 mg/kg/injection, schedule: Q01DX011 (oral), vehicle: saline
  T/C: 88 % of control
dose: 19.0 mg/kg/injection, schedule: Q01DX011 (ip), vehicle: other
  T/C: 53 % of control
dose: 21.75 mg/kg/injection, schedule: Q01DX011 (ip), vehicle: other
  T/C: 55 % of control and 73 % of control
dose: 22.5 mg/kg/injection, schedule: Q01DX011 (iv), vehicle: other
  T/C: 67 % of control
dose: 25.0 mg/kg/injection, schedule: Q01DX011 (ip), vehicle: other
  T/C: 59 % of control
dose: 27.7 mg/kg/injection, schedule: Q01DX011 (ip), vehicle: carboxymethylcellulose (CMC)
  T/C: 161 % of control
dose: 27.7 mg/kg/injection, schedule: Q01DX011 (ip), vehicle: other
  T/C: 56 % of control
dose: 30.37 mg/kg/injection, schedule: Q01DX011 (ip), vehicle: carboxymethylcellulose (CMC)
  T/C: 53 % of control
dose: 31.25 mg/kg/injection, schedule: Q01DX011 (ip), vehicle: carboxymethylcellulose (CMC)
  T/C: 118 % of control
dose: 31.25 mg/kg/injection, schedule: Q01DX011 (ip), vehicle: methylcellulose (MC)
  T/C: 91 % of control
dose: 31.25 mg/kg/injection, schedule: Q01DX011 (iv), vehicle: other
  T/C: 80 % of control and 85 % of control
dose: 31.3 mg/kg/injection, schedule: Q01DX011 (oral), vehicle: other
  T/C: 101 % of control
dose: 31.3 mg/kg/injection, schedule: Q01DX011 (oral), vehicle: saline
  T/C: 75 % of control
dose: 34.8 mg/kg/injection, schedule: Q01DX011 (ip), vehicle: carboxymethylcellulose (CMC)
  T/C: 50 % of control
dose: 43.5 mg/kg/injection, schedule: Q01DX011 (ip), vehicle: carboxymethylcellulose (CMC)
  T/C: 47 % of control
dose: 43.5 mg/kg/injection, schedule: Q01DX011 (ip), vehicle: other
  T/C: 109 % of control
dose: 45.0 mg/kg/injection, schedule: Q01DX011 (iv), vehicle: other
  T/C: 89 % of control
dose: 55.4 mg/kg/injection, schedule: Q01DX011 (ip), vehicle: carboxymethylcellulose (CMC)
  T/C: 96 % of control
dose: 55.4 mg/kg/injection, schedule: Q01DX011 (ip), vehicle: other
  T/C: 45 % of control
dose: 56.5 mg/kg/injection, schedule: Q01DX011 (ip), vehicle: other
  T/C: 54 % of control
dose: 58.0 mg/kg/injection, schedule: Q01DX011 (ip), vehicle: carboxymethylcellulose (CMC)
  T/C: 29 % of control
dose: 60.75 mg/kg/injection, schedule: Q01DX011 (ip), vehicle: carboxymethylcellulose (CMC)
  T/C: 78 % of control
dose: 62.5 mg/kg/injection, schedule: Q01DX011 (ip), vehicle: carboxymethylcellulose (CMC)
  T/C: 88 % of control
dose: 62.5 mg/kg/injection, schedule: Q01DX011 (ip), vehicle: methylcellulose (MC)
  T/C: 82 % of control
dose: 62.5 mg/kg/injection, schedule: Q01DX011 (iv), vehicle: other
  T/C: 51 % of control and 57 % of control
dose: 62.5 mg/kg/injection, schedule: Q01DX011 (oral), vehicle: other
  T/C: 74 % of control
dose: 62.5 mg/kg/injection, schedule: Q01DX011 (oral), vehicle: saline
  T/C: 105 % of control
dose: 87.0 mg/kg/injection, schedule: Q01DX011 (ip), vehicle: carboxymethylcellulose (CMC)
  T/C: 11 % of control
dose: 87.0 mg/kg/injection, schedule: Q01DX011 (ip), vehicle: other
  T/C: 14 % of control
dose: 121.5 mg/kg/injection, schedule: Q01DX011 (ip), vehicle: carboxymethylcellulose (CMC)
  T/C: 48 % of control
dose: 125.0 mg/kg/injection, schedule: Q01DX011 (ip), vehicle: carboxymethylcellulose (CMC)
  T/C: 43 % of control
dose: 125.0 mg/kg/injection, schedule: Q01DX011 (ip), vehicle: methylcellulose (MC)
  T/C: 34 % of control
dose: 125.0 mg/kg/injection, schedule: Q01DX011 (iv), vehicle: other
  T/C: 8 % of control
dose: 125.0 mg/kg/injection, schedule: Q01DX011 (oral), vehicle: other
  T/C: 54 % of control
dose: 125.0 mg/kg/injection, schedule: Q01DX011 (oral), vehicle: saline
  T/C: 106 % of control
dose: 250.0 mg/kg/injection, schedule: Q01DX011 (ip), vehicle: carboxymethylcellulose (CMC)
  T/C: 36 % of control
dose: 250.0 mg/kg/injection, schedule: Q01DX011 (oral), vehicle: saline
  T/C: 40 % of control

## CN1CC(=O)NC1=O
dose: 250.0 mg/kg/injection, schedule: Q01DX011 (ip), vehicle: saline
  T/C: 105 % of control
dose: 500.0 mg/kg/injection, schedule: Q01DX011 (ip), vehicle: saline
  T/C: 93 % of control
dose: 1000.0 mg/kg/injection, schedule: Q01DX011 (ip), vehicle: saline
  T/C: 81 % of control

## CN[C@H]1CCc2cc(OC)c(OC)c(OC)c2-c2ccc(OC)c(=O)cc21
dose: 0.75 mg/kg/injection, schedule: Q01DX011 (ip), vehicle: methylcellulose (MC)
  T/C: 44 % of control
dose: 1.5 mg/kg/injection, schedule: Q01DX011 (ip), vehicle: methylcellulose (MC)
  T/C: 60 % of control
dose: 3.0 mg/kg/injection, schedule: Q01DX011 (ip), vehicle: methylcellulose (MC)
  T/C: 56 % of control
dose: 6.0 mg/kg/injection, schedule: Q01DX011 (ip), vehicle: methylcellulose (MC)
  T/C: 7 % of control

## Nc1nc2c(nc(I)n2C2OC(CO)C(O)C2O)c(=O)[nH]1 (configuration not stated)
dose: 30.0 mg/kg/injection, schedule: Q01DX011 (ip), vehicle: carboxymethylcellulose (CMC)
  T/C: 94 % of control
dose: 60.0 mg/kg/injection, schedule: Q01DX011 (ip), vehicle: carboxymethylcellulose (CMC)
  T/C: 87 % of control
dose: 120.0 mg/kg/injection, schedule: Q01DX011 (ip), vehicle: carboxymethylcellulose (CMC)
  T/C: 26 % of control
dose: 240.0 mg/kg/injection, schedule: Q01DX011 (ip), vehicle: carboxymethylcellulose (CMC)
  T/C: 40 % of control

## CCc1nc(N)nc(N)c1-c1ccc(Cl)c(Cl)c1
dose: 0.5 mg/kg/injection, schedule: Q01DX011 (ip), vehicle: methylcellulose (MC)
  T/C: 51 % of control
dose: 1.0 mg/kg/injection, schedule: Q01DX011 (ip), vehicle: methylcellulose (MC)
  T/C: 62 % of control and 71 % of control
[1]
  T/C: 52 % of control

## Cc1cccc(Nc2c(N)nc(N)nc2N)c1
dose: 11.0 mg/kg/injection, schedule: Q01DX011 (ip), vehicle: carboxymethylcellulose (CMC)
  T/C: 50 % of control
dose: 22.0 mg/kg/injection, schedule: Q01DX011 (ip), vehicle: carboxymethylcellulose (CMC)
  T/C: 61 % of control
dose: 44.0 mg/kg/injection, schedule: Q01DX011 (ip), vehicle: carboxymethylcellulose (CMC)
  T/C: 32 % of control
dose: 88.0 mg/kg/injection, schedule: Q01DX011 (ip), vehicle: carboxymethylcellulose (CMC)
  T/C: 48 % of control

## C=CCSc1nc(N)nc2nc[nH]c12
[1]
  T/C: 50 % of control
dose: 4.0 mg/kg/injection, schedule: Q01DX011 (ip), vehicle: methylcellulose (MC)
  T/C: 41 % of control
dose: 16.0 mg/kg/injection, schedule: Q01DX011 (ip), vehicle: methylcellulose (MC)
  T/C: 3 % of control

## CN(C)S(=O)(=O)c1ncnc2nc[nH]c12
dose: 32.0 mg/kg/injection, schedule: Q01DX011 (ip), vehicle: other
  T/C: 26 % of control
dose: 128.0 mg/kg/injection, schedule: Q01DX011 (ip), vehicle: other
  T/C: 7 % of control
dose: 256.0 mg/kg/injection, schedule: Q01DX011 (ip), vehicle: other
  T/C: 6 % of control

## O=C(O)C(O)C(O)C(O)C(O)CO.O=C(O)C(O)C(O)C(O)C(O)CO.O=C(O)C(O)C(O)C(O)C(O)CO.[Ga] (configuration not stated)
dose: 10.0 mg/kg/injection, schedule: Q01DX011 (ip), vehicle: carboxymethylcellulose (CMC)
  T/C: 72 % of control
dose: 20.0 mg/kg/injection, schedule: Q01DX011 (ip), vehicle: carboxymethylcellulose (CMC)
  T/C: 64 % of control
dose: 40.0 mg/kg/injection, schedule: Q01DX011 (ip), vehicle: carboxymethylcellulose (CMC)
  T/C: 25 % of control
[2]
  T/C: 10 % of control

## Cc1ccc(C(=O)Nc2ccc(S(=O)(=O)O)c3cc(S(=O)(=O)O)cc(S(=O)(=O)O)c23)cc1NC(=O)c1cccc(NC(=O)Nc2cccc(C(=O)Nc3cc(C(=O)Nc4ccc(S(=O)(=O)O)c5cc(S(=O)(=O)O)cc(S(=O)(=O)O)c45)ccc3C)c2)c1 (tested in a mixture with another compound)
dose: 170.0 mg/kg/injection, schedule: Q01DX011 (ip), vehicle: methylcellulose (MC)
  T/C: 88 % of control and 82 % of control
dose: 680.0 mg/kg/injection, schedule: Q01DX011 (ip), vehicle: methylcellulose (MC)
  T/C: 98 % of control

## O=S1(=O)CCCO1
[2]
  T/C: 32 % of control and 33 % of control
